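Dose response: 5 concentrations. Exposure: 48 h. Format: 96-well plates. Endpoint: linear interpolation; highest concentration if not reached. GI50 = concentration required for 50% inhibition of growth.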 Calls of active or inactive are those of the source. Cut-off read from the data, not from the text of the source: active = GI50 up to about 1.1 µM and inactive = higher.
How the values were obtained:
Test in all cases: NCI tumour cell line growth inhibition, 48 h
[1] = tested on: 786-0
[2] = tested on: ACHN
[3] = tested on: CAKI-1
[4] = tested on: EKVX
[5] = tested on: HCT-116
[6] = tested on: HL-60
[7] = tested on: HOP-92
[8] = tested on: Hs-578T
[9] = tested on: MDA-MB-231
[10] = tested on: Malme-3M
[11] = tested on: OVCAR-5
[12] = tested on: OVCAR-8
[13] = tested on: PC-3
[14] = tested on: RXF 393
[15] = tested on: SF-539
[16] = tested on: SK-MEL-28
[17] = tested on: SW-620
[18] = tested on: U-251
[19] = tested on: UACC-257
[20] = tested on: UO-31

Measured: GI50

COc1ccc(S(=O)(=O)N/N=C/C(=O)O)cc1
inactive: [1] 397 µM | [2] 354 µM | [3] 458 µM | [4] 1160 µM | [5] 445 µM | [6] 185 µM | [7] 364 µM | [8] 404 µM | [9] 822 µM | [10] 832 µM | [11] 873 µM | [12] 499 µM | [13] 389 µM | [14] 410 µM | [15] 519 µM | [16] 764 µM | [17] 485 µM | [18] 499 µM | [19] 849 µM | [20] 631 µM

O=P1(O)c2ccccc2Nc2cc(C(F)(F)F)ccc21
inactive: [1] > 100 µM | [2] > 100 µM | [3] > 100 µM | [4] > 100 µM | [5] > 100 µM | [6] > 100 µM | [7] > 100 µM | [8] > 100 µM | [9] > 100 µM | [10] > 100 µM | [11] > 100 µM | [12] > 100 µM | [13] > 100 µM | [14] > 100 µM | [15] > 100 µM | [16] > 100 µM | [17] > 100 µM | [18] > 100 µM | [19] > 100 µM | [20] > 100 µM

O=S(=O)(N=S(c1ccc(Cl)cc1)c1ccc(Cl)cc1)c1ccccc1
inactive: [1] > 100 µM | [2] > 100 µM | [3] > 100 µM | [4] > 100 µM | [5] 59.3 µM | [6] 27.5 µM | [7] > 100 µM | [8] 56.9 µM | [9] > 100 µM | [10] > 100 µM | [11] > 100 µM | [12] > 100 µM | [13] 43.6 µM | [14] 65.3 µM | [15] > 100 µM | [16] > 100 µM | [17] > 100 µM | [18] > 100 µM | [19] 77.4 µM | [20] 45.1 µM

S=C(Nc1cc(Cl)c(Cl)cc1Cl)SCc1ccccc1
inactive: [1] 38.2 µM | [2] 20.5 µM | [3] 22.6 µM | [4] 40.7 µM | [5] 32.3 µM | [6] 18.8 µM | [7] 21.3 µM | [8] 34.3 µM | [9] 13.1 µM | [10] 28.2 µM | [11] 22.8 µM | [12] 20.1 µM | [13] 32 µM | [14] 54.8 µM | [15] 23.1 µM | [16] 28.6 µM | [17] 35.2 µM | [18] 22.2 µM | [19] 19 µM | [20] 40.6 µM

Nc1ccc(-c2cssc2=S)cc1
inactive: [1] 49 µM | [2] 38.1 µM | [3] 37.9 µM | [4] 41.6 µM | [5] 42 µM | [6] 18.6 µM | [7] 56.2 µM | [8] 36.3 µM | [9] 39.3 µM | [10] 34 µM | [11] > 100 µM | [12] 45.7 µM | [13] 41.9 µM | [14] 29.8 µM | [15] 52.8 µM | [16] 49.7 µM | [17] 54.8 µM | [18] 40.7 µM | [19] 59.6 µM | [20] 35.9 µM

C#CCn1c(=O)ccn(/C(=C/C(=O)OCC)C(=O)OCC)c1=O
inactive: [1] 3.41 µM | [2] 1.59 µM | [3] 1.58 µM | [4] 5.62 µM | [5] 6.15 µM | [6] 3.44 µM | [7] 2.38 µM | [8] 18.7 µM | [9] 14.8 µM | [10] 1.96 µM | [11] 7.13 µM | [12] 2.2 µM | [13] 14.2 µM | [14] 1.36 µM | [15] 1.48 µM | [16] 7.41 µM | [17] 1.86 µM | [18] 14.2 µM | [19] 15 µM | [20] 12.6 µM

O=C1c2c(ccc3c2CCCC3)CC12Cc1ccccc1C2
inactive: [1] 14.2 µM | [2] 7.73 µM | [3] 7.62 µM | [4] 20 µM | [5] 5.43 µM | [6] 11.2 µM | [7] 12.7 µM | [8] 22.5 µM | [9] 18.1 µM | [10] 5.48 µM | [11] 21.8 µM | [12] 9.84 µM | [13] 22.9 µM | [14] 11 µM | [15] 6.31 µM | [16] 14.4 µM | [17] 4.88 µM | [18] 27.2 µM | [19] 16.6 µM | [20] 5.28 µM

COc1ccc(OC)c2sc(N3C(=O)/C(=C/c4ccc(Cl)cc4)N=C3c3ccccc3)nc12
inactive: [1] 73.3 µM | [2] > 100 µM | [3] > 100 µM | [4] > 100 µM | [5] > 100 µM | [6] 40.6 µM | [7] 49.5 µM | [8] > 100 µM | [9] > 100 µM | [10] > 100 µM | [11] > 100 µM | [12] 60.3 µM | [13] 58.1 µM | [14] 78.5 µM | [15] > 100 µM | [16] > 100 µM | [17] 67.9 µM | [18] 40.7 µM | [19] 51.2 µM | [20] > 100 µM

Cc1ccc(C)n1-c1ccccc1C1SCCCS1
inactive: [1] > 100 µM | [2] > 100 µM | [3] > 100 µM | [4] > 100 µM | [5] > 100 µM | [6] 16.9 µM | [7] > 100 µM | [8] > 100 µM | [9] 49.9 µM | [10] > 100 µM | [11] > 100 µM | [12] > 100 µM | [13] > 100 µM | [14] > 100 µM | [15] > 100 µM | [16] > 100 µM | [17] > 100 µM | [18] > 100 µM | [19] > 100 µM | [20] > 100 µM

Nc1c2c(nc3ccccc13)-c1ccccc1NCCC2
inactive: [1] 16.7 µM | [2] 36.6 µM | [3] 30.8 µM | [4] 38.3 µM | [5] 23.3 µM | [6] 18.4 µM | [7] 13.9 µM | [8] 56.5 µM | [9] 19.7 µM | [10] 18 µM | [11] 35.6 µM | [12] 42.2 µM | [13] 20.4 µM | [14] 16.1 µM | [15] 21 µM | [16] 18.2 µM | [17] 23.4 µM | [18] 32.2 µM | [19] 13.6 µM | [20] 25 µM
